Results: ChEMBL document CHEMBL3132769, “Fragment growing to retain or alter the selectivity of anchored kinase hinge-binding fragments” (Medchemcomm, 2014)

Key:
[1] = molecular target: T1, Protein kinase C epsilon type (Homo sapiens) (UniProt Q02156); test: Inhibition of human truncated PKC epsilon expressed in baculovirus assessed as substrate phosphorylation using fluorescence-labelled peptides as substrate at 8 uM after 90 mins by microfluidic peptide phosphorylation assay
T1 sequence (whole entry): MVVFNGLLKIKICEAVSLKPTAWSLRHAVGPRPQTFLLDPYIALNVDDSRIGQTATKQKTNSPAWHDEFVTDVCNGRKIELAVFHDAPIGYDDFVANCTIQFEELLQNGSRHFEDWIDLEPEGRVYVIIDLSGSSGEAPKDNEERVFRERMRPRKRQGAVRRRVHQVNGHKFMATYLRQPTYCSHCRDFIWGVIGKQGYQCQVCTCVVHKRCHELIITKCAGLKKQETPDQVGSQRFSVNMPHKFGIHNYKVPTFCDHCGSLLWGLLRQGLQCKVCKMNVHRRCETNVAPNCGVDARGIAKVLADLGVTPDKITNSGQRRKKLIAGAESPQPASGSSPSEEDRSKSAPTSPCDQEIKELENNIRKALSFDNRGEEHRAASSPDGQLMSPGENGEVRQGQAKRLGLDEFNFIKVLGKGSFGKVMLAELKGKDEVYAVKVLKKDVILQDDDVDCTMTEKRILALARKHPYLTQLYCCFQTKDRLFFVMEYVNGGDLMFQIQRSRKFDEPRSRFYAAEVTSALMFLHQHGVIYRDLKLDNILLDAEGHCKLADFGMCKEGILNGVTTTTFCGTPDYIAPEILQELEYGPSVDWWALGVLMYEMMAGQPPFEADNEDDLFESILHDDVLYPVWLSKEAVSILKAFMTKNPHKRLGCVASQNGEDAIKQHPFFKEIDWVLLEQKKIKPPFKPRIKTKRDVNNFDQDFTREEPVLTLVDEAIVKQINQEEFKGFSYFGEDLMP

[2] = molecular target: Fibroblast growth factor receptor 4 (Homo sapiens) (UniProt P22455); test: Inhibition of human FGFR4 catalytic domain expressed in baculovirus assessed as substrate phosphorylation using fluorescence-labelled peptides as substrate at 2 uM after 90 mins by microfluidic peptide phosphorylation assay
Chain of Fibroblast growth factor receptor 4 (Homo sapiens) (P22455 22-802 limits assumed): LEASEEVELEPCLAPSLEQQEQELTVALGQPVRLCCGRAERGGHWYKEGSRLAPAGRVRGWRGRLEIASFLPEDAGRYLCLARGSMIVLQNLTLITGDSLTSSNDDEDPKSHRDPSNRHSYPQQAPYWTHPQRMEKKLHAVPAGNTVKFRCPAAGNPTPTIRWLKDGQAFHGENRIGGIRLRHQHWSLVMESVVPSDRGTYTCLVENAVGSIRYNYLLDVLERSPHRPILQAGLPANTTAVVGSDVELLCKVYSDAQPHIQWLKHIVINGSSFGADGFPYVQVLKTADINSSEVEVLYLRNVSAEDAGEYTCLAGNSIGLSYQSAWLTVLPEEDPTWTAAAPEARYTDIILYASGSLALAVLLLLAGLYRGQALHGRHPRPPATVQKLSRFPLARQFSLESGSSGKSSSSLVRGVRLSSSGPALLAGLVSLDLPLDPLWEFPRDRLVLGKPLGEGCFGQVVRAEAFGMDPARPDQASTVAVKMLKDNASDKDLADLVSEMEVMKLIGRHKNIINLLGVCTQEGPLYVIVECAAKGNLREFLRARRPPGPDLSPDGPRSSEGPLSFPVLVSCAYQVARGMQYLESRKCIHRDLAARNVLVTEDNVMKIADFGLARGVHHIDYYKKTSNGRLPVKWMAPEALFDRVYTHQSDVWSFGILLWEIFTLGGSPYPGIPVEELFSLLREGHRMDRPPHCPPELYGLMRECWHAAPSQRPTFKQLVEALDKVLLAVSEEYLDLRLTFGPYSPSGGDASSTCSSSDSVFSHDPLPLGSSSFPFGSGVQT

[3] = molecular target: T2, Serine/threonine-protein kinase D3 (Homo sapiens) (UniProt O94806); test: Inhibition of human full length PKD3 expressed in baculovirus assessed as substrate phosphorylation using fluorescence-labelled peptides as substrate at 0.06 uM after 90 mins by microfluidic peptide phosphorylation assay
T2 sequence (whole entry): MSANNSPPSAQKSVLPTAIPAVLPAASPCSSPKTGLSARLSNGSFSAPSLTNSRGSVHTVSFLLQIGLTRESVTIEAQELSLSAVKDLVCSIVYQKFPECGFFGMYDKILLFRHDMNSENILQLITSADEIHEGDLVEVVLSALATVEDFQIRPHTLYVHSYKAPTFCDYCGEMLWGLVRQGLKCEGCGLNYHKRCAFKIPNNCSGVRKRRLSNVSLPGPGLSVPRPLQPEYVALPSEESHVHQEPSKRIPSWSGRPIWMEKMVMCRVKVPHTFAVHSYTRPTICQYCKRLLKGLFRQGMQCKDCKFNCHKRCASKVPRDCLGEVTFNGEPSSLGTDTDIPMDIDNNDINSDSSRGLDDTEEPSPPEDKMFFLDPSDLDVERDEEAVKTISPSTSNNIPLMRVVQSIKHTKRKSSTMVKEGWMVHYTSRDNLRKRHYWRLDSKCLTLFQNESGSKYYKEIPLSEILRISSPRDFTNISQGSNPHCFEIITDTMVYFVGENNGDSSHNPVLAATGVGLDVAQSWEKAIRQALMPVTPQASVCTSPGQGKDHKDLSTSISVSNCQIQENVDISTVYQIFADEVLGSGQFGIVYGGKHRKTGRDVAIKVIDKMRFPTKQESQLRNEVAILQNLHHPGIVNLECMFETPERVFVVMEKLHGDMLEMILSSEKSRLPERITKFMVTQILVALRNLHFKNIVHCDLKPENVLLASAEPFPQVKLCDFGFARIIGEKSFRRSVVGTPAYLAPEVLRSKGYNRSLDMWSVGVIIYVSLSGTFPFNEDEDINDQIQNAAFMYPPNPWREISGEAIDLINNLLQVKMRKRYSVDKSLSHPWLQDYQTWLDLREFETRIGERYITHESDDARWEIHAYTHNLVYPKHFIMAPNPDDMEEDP

[4] = molecular target: T3, Serine/threonine-protein kinase Sgk3 (Homo sapiens) (UniProt Q96BR1); details: 0.1 uM
T3 sequence (whole entry): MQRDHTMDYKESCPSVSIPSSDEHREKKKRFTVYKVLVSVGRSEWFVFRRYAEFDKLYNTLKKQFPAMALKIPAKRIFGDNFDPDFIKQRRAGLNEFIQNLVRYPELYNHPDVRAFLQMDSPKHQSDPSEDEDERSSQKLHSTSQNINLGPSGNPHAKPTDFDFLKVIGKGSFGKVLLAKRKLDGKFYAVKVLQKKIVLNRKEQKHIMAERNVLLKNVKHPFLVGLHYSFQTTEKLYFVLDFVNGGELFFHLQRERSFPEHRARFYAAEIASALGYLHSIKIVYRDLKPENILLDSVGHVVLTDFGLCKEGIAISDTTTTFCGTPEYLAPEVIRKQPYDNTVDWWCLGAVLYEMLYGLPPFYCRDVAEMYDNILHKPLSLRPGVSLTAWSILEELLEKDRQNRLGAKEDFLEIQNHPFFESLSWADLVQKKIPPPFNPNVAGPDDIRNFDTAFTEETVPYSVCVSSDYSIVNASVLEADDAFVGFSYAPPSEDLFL
Description: Inhibition of human full length SGK3 expressed in baculovirus assessed as substrate phosphorylation using fluorescence-labelled peptides as substrate at 0.1 uM after 90 mins by microfluidic peptide phosphorylation assay

[5] = molecular target: Fibroblast growth factor receptor 4 (Homo sapiens) (UniProt P22455); test: Inhibition of human FGFR4 catalytic domain expressed in baculovirus assessed as substrate phosphorylation using fluorescence-labelled peptides as substrate at 70 uM after 90 mins by microfluidic peptide phosphorylation assay

With `NCC1CCN(c2ncnc3[nH]ccc23)CC1` the inhibition [1] was 34%.
Work on `NC1CCN(c2ncnc3[nH]ccc23)CC1` yielded an inhibition [2] of 0%.
`NC1(Cc2ccc(Cl)cc2)CCN(c2ncnc3[nH]ccc23)CC1` was tested, and the inhibition [3] was 0%.
Work on `C[C@H](CN(C)C)Oc1nc(Nc2cc3cccc(Cl)c3cn2)cnc1C#N` yielded an inhibition [4] of 0%.
In the case of `CNCc1ccc(-c2ncnc3[nH]cnc23)cc1`, the inhibition [5] is reported as 11.5%.
